Among the data in patent publication US10000501B2, “Inhibitors of HIF prolyl hydroxylase” (MERCK SHARP & DOHME CORP., priority 2014, dated 2018) are IC50 values, retold here.

The term IC50 denotes the concentration at which inhibition is half-maximal. Higher therefore signals weaker potency in that assay.

T1 sequence (Q9GZT9 whole entry): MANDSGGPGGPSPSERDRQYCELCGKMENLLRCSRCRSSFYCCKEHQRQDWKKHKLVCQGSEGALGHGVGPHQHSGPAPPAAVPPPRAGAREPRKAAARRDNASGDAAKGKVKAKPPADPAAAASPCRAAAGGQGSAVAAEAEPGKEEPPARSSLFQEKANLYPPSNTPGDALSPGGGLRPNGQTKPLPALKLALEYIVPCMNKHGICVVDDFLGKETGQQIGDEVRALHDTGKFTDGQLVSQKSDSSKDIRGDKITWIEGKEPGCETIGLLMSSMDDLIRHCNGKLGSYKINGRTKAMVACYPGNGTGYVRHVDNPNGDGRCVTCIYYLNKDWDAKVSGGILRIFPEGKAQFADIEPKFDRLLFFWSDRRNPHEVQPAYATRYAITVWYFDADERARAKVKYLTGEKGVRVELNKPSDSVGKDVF

The assay addresses T1, human HIF-PHD2 (Homo sapiens, UniProt Q9GZT9).
T1 construct: FLAG-tagged full length PHD2 expressed in and purified from baculovirus-infected Sf9 cells; FLAG; made in house; host or cells: baculovirus-infected Sf9 cells
Briefly: HIF-PHD2 inhibition assay (hydroxylation of HIF-1α peptide, time resolved fluorescence). Format: biochemical. The settings on record: FLAG-tagged full length PHD2; 0.2 μM 2-oxoglutarate, 0.5 μM HIF-1α peptide. The procedure:
To each well of a 384-well plate, 1 μL of test compounds in DMSO (final concentration ranging from 0.3 nM to 10 uM) were added into 20 μl of assay buffer (50 mM Tris pH 7.4/0.01% Tween-20/0.1 mg/ml bovine serum albumin/10 μM ferrous sulfate/1 mM sodium ascorbate/20 μg/ml catalase) containing 0.15 μg/ml FLAG-tagged full length PHD2 expressed in and purified from baculovirus-infected Sf9 cells. […] Purif.
Take `O=C(O)CNC(=O)c1c(O)c2c(n(Cc3nc4ccccc4s3)c1=O)C1CCC2C1` (racemic) [Example 82, 2-((5S,8R)-1-(benzo[d]thiazol-2-ylmethyl)-4-hydroxy-2-oxo-1,2,5,6,7,8-hexahydro-5,8-methanoquinoline-3-carboxamido)acetic acid]: the IC50 turned out to be 43 nM.
The value for `CN1Cc2c(c(O)c(C(=O)NCC(=O)O)c(=O)n2Cc2ccc(C(F)(F)F)cc2)CC1=O` [Example 3, 2-(4-Hydroxy-7-methyl-2,6-dioxo-1-(4-(trifluoromethyl)benzyl)-1,2,5,6,7,8-hexahydro-1,7-naphthyridine-3-carboxamido)acetic acid] was 6.7 nM; that for `O=C(O)CNC(=O)c1c(O)c2c([nH]c1=O)CCOC2` [Example 4, 2-(4-Hydroxy-2-oxo-2,5,7,8-tetrahydro-1H-pyrano[4,3-b]pyridine-3-carboxamido)acetic acid] was 41.8 nM; that for `N#Cc1ccc(Cn2c3c(c(O)c(C(=O)NCC(=O)O)c2=O)COCC3)cc1` [Example 5, 2-(1-(4-Cyanobenzyl)-4-hydroxy-2-oxo-2,5,7,8-tetrahydro-1H-pyrano[4,3-b]pyridine-3-carboxamido)acetic acid] was 13.9 nM.
The figure for `COc1ccc(Cn2c3c(c(O)c(C(=O)NCC(=O)O)c2=O)COCC3)cc1` [Example 6, 2-(4-hydroxy-1-(4-methoxybenzyl)-2-oxo-2,5,7,8-tetrahydro-1H-pyrano[4,3-b]pyridine-3-carboxamido)acetic acid] is 15.6 nM; for `O=C(O)CNC(=O)c1c(O)c2c(n(Cc3ccc(OC(F)(F)F)cc3)c1=O)CCOC2` [Example 7, 2-(4-hydroxy-2-oxo-1-(4-(trifluoromethoxy)benzyl)-2,5,7,8-tetrahydro-1H-pyrano[4,3-b]pyridine-3-carboxamido)acetic acid] it is 10.3 nM.
For `O=C(O)CNC(=O)c1c(O)c2c(n(Cc3ccc(OC(F)F)cc3)c1=O)CCOC2` [Example 8, 2-(1-(4-(difluoromethxoy)benzyl)-4-hydroxy-2-oxo-2,5,7,8-tetrahydro-1H-pyrano[4,3-b]pyridine-3-carboxamido)acetic acid], the IC50 was found to be 13.4 nM.
The figure for `O=C(O)CNC(=O)c1c(O)c2c(n(Cc3ccc(F)cc3)c1=O)CCOC2` [Example 9, 2-(1-(4-fluorobenzyl)-4-hydroxy-2-oxo-2,5,7,8-tetrahydro-1H-pyrano[4,3-b]pyridine-3-carboxamido)acetic acid] is 13.7 nM.
The value for `CS(=O)(=O)c1ccc(Cn2c3c(c(O)c(C(=O)NCC(=O)O)c2=O)COCC3)cc1` [Example 11, 2-(4-hydroxy-1-(4-(methylsulfonyl)benzyl)-2-oxo-2,5,7,8-tetrahydro-1H-pyrano[4,3-b]pyridine-3-carboxamido)acetic acid] was 20.2 nM; that for `CC(C)c1ccc(Cn2c3c(c(O)c(C(=O)NCC(=O)O)c2=O)COCC3)cc1` [Example 12, 2-(4-hydroxy-1-(4-isopropylbenzyl)-2-oxo-2,5,7,8-tetrahydro-1H-pyrano[4,3-b]pyridine-3-carboxamido)acetic acid] was 12.5 nM; that for `CC(C)Oc1ccc(Cn2c3c(c(O)c(C(=O)NCC(=O)O)c2=O)COCC3)cc1` [Example 13, 2-(4-hydroxy-1-(4-isopropoxybenzyl)-2-oxo-2,5,7,8-tetrahydro-1H-pyrano[4,3-b]pyridine-3-carboxamido)acetic acid] was 20.5 nM.
The value for `O=C(O)CNC(=O)c1c(O)c2c(n(Cc3ccc(F)c(F)c3)c1=O)CCOC2` [Example 15, 2-(1-(3,4-difluorobenzyl)-4-hydroxy-2-oxo-2,5,7,8-tetrahydro-1H-pyrano[4,3-b]pyridine-3-carboxamido)acetic acid] was 14.7 nM.
The molecule `O=C(O)CNC(=O)c1c(O)c2c(n(Cc3ccc(F)cc3F)c1=O)CCOC2` [Example 16, 2-(1-(2,4-difluorobenzyl)-4-hydroxy-2-oxo-2,5,7,8-tetrahydro-1H-pyrano[4,3-b]pyridine-3-carboxamido)acetic acid] returned an IC50 of 10.3 nM.
The figure for `O=C(O)CNC(=O)c1c(O)c2c(n(Cc3ccc(Cl)cc3F)c1=O)CCOC2` [Example 18, 2-(1-(4-chloro-2-fluorobenzyl)-4-hydroxy-2-oxo-2,5,7,8-tetrahydro-1H-pyrano[4,3-b]pyridine-3-carboxamid)acetic acid] is 19.2 nM; for `CCn1c2c(c(O)c(C(=O)NCC(=O)O)c1=O)COCC2` [Example 19, 2-(1-ethyl-4-hydroxy-2-oxo-2,5,7,8-tetrahydro-1H-pyrano[4,3-b]pyridine-3-carboxamido)acetic acid] it is 78.5 nM.
The value for `O=C(O)CNC(=O)c1c(O)c2c(n(CC3CCCCC3)c1=O)CCOC2` [Example 20, 2-(1-(cyclohexylmethyl)-4-hydroxy-2-oxo-2,5,7,8-tetrahydro-1H-pyrano[4,3-b]pyridine-3-carboxamido)acetic acid] was 76 nM.
The value for `O=C(O)CNC(=O)c1c(O)c2c(n(Cc3ccc4ccccc4c3)c1=O)CCOC2` [Example 21, 2-(4-hydroxy-1-(naphthalen-2-ylmethyl)-2-oxo-2,5,7,8-tetrahydro-1H-pyrano[4,3-b]pyridine-3-carboxamido)acetic acid] was 37.7 nM; that for `Cn1c2c(c(O)c(C(=O)NCC(=O)O)c1=O)COCC2` [Example 22, 2-(4-hydroxy-1-methyl-2-oxo-2,5,7,8-tetrahydro-1H-pyrano[4,3-b]pyridine-3-carboxamido)acetic acid] was 56.1 nM.
Molecule `O=C(O)CNC(=O)c1c(O)c2c(n(Cc3ncc(C(F)(F)F)cn3)c1=O)CCOC2` [Example 23, 2-(4-hydroxy-2-oxo-1-((5-(trifluoromethyl)pyrimidin-2-yl)methyl)-2,5,7,8-tetrahydro-1H-pyrano[4,3-b]pyridine-3-carboxamido)acetic acid] displayed a concentration for half-maximal inhibition (IC50) of 44.5 nM.
The value for `O=C(O)CNC(=O)c1c(O)c2c(n(Cc3cc(F)c(F)cc3F)c1=O)CCOC2` [Example 24, 2-(4-Hydroxy-2-oxo-1-(2,4,5-trifluorobenzyl)-2,5,7,8-tetrahydro-1H-pyrano[4,3-b]pyridine-3-carboxamido)acetic acid] was 16.8 nM; that for `CNC(=O)c1ccc(Cn2c3c(c(O)c(C(=O)NCC(=O)O)c2=O)COCC3)cc1` [Example 26, 2-(4-Hydroxy-1-(4-(methylcarbamoyl)benzyl)-2-oxo-2,5,7,8-tetrahydro-1H-pyrano[4,3-b]pyridine-3-carboxamido)acetic acid] was 30.8 nM.
The figure for `Cn1ccc(Cn2c3c(c(O)c(C(=O)NCC(=O)O)c2=O)COCC3)n1` [Example 27, 2-(4-Hydroxy-1-((1-methyl-1H-pyrazol-3-yl)methyl)-2-oxo-2,5,7,8-tetrahydro-1H-pyrano[4,3-b]pyridine-3-carboxamido)acetic acid] is 32.6 nM.
The figure for `Cc1cc(Cn2c3c(c(O)c(C(=O)NCC(=O)O)c2=O)COCC3)ccc1C#N` [Example 28, 2-(1-(4-Cyano-3-methylbenzyl)-4-hydroxy-2-oxo-2,5,7,8-tetrahydro-1H-pyrano[4,3-b]pyridine-3-carboxamido)acetic acid] is 14.5 nM.
The molecule `N#Cc1ccc(Cn2c3c(c(O)c(C(=O)NCC(=O)O)c2=O)COCC3)cc1F` [Example 29, 2-(1-(4-Cyano-3-fluorobenzyl)-4-hydroxy-2-oxo-2,5,7,8-tetrahydro-1H-pyrano[4,3-b]pyridine-3-carboxamido)acetic acid] came in with a half-maximal inhibitory concentration (IC50) of 16 nM.
The value for `COc1ccc(Cn2c3c(c(O)c(C(=O)NCC(=O)O)c2=O)COCC3)cn1` [Example 30, 2-(4-Hydroxy-1-((6-methoxypyridin-3-yl)methyl)-2-oxo-2,5,7,8-tetrahydro-1H-pyrano[4,3-b]pyridine-3-carboxamido)acetic acid] was 17.4 nM.
As to `O=C(O)CNC(=O)c1c(O)c2c(n(Cc3cncs3)c1=O)CCOC2` [Example 31, 2-(4-Hydroxy-2-oxo-1-(thiazol-5-ylmethyl)-2,5,7,8-tetrahydro-1H-pyrano[4,3-b]pyridine-3-carboxamido)acetic acid], half-maximal inhibition (IC50) was put at 32.8 nM.
In the case of `O=C(O)CNC(=O)c1c(O)c2c(n(Cc3ccn(-c4ccccc4)n3)c1=O)CCOC2` [Example 32, 2-(4-Hydroxy-2-oxo-1-((1-phenyl-1H-pyrazol-3-yl)methyl)-2,5,7,8-tetrahydro-1H-pyrano[4,3-b]pyridine-3-carboxamido)acetic acid], 12.1 nM corresponded to half-maximal inhibition (IC50).
The value for `CC(C)(O)c1ccc(Cn2c3c(c(O)c(C(=O)NCC(=O)O)c2=O)COCC3)cc1` [Example 33, 2-(4-Hydroxy-1-(4-(2-hydroxypropan-2-yl)benzyl)-2-oxo-2,5,7,8-tetrahydro-1H-pyrano[4,3-b]pyridine-3-carboxamido)acetic acid] was 49.9 nM; that for `NC(=O)c1ccc(Cn2c3c(c(O)c(C(=O)NCC(=O)O)c2=O)COCC3)cc1` [Example 34, 2-(1-(4-Carbamoylbenzyl)-4-hydroxy-2-oxo-2,5,7,8-tetrahydro-1H-pyrano[4,3-b]pyridine-3-carboxamido)acetic acid] was 29.3 nM; that for `O=C(O)CNC(=O)c1c(O)c2c(n(Cc3csc(C(F)(F)F)n3)c1=O)CCOC2` [Example 35, 2-(4-Hydroxy-2-oxo-1-((2-(trifluoromethyl)thiazol-4-yl)methyl)-2,5,7,8-tetrahydro-1H-pyrano[4,3-b]pyridine-3-carboxamido)acetic acid] was 15.1 nM.
`O=C(O)CNC(=O)c1c(O)c2c(n(-c3ccc(OC(F)(F)F)cc3)c1=O)CCOC2` [Example 36, 2-(4-Hydroxy-2-oxo-1-(4-(trifluoromethoxy)phenyl)-2,5,7,8-tetrahydro-1H-pyrano[4,3-b]pyridine-3-carboxamido)acetic acid] displayed a 50% inhibitory concentration (IC50) of 98.8 nM.
